Several values for one entry are separate records, joined by “and”; a condition that tells them apart may be missing. Equal values may be shown once.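 Dose response: 5 concentrations. Exposure: 48 h. Format: 96-well plates. Endpoint: linear interpolation; highest concentration if not reached. Abbreviation: GI50, concentration required for 50% inhibition of growth. TGI: total growth inhibition.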
Assays:
Experiment in all cases: NCI tumour cell line growth inhibition, 48 h
DMS 114 small cell lung = tested on: DMS 114 small cell lung
DMS 273 small cell lung = tested on: DMS 273 small cell lung
KM20L2 colon = tested on: KM20L2 colon
SNB-78 CNS = tested on: SNB-78 CNS
XF 498 CNS = tested on: XF 498 CNS
RXF-631 renal = tested on: RXF-631 renal
P388 leukemia = tested on: P388 leukemia
P388/ADR leukemia = tested on: P388/ADR leukemia
SN12K1 renal = tested on: SN12K1 renal

Structure (SMILES) | TGI (DMS 114 small cell lung) | TGI (DMS 273 small cell lung) | TGI (KM20L2 colon) | TGI (SNB-78 CNS) | TGI (XF 498 CNS) | TGI (RXF-631 renal) [µM] | TGI (P388 leukemia) [µM] | TGI (P388/ADR leukemia) [µM] | TGI (SN12K1 renal) [µM] | GI50 (DMS 114 small cell lung) [µM] | GI50 (DMS 273 small cell lung) [µM] | GI50 (KM20L2 colon) [µM] | GI50 (SNB-78 CNS)
C=C(C)C1Cc2c(cc(OC)c3c(=O)c4ccccc4n(C)c23)O1 (stereo not given) | > 100 µM | > 100 µM | > 100 µM | > 100 µM | > 100 µM |  |  |  |  |  |  |  | 
O=C1NC2(NC(=O)C1=O)Nc1ccccc1S2 | 79.8 µM | > 100 µM | > 100 µM | > 100 µM |  | 47.9 |  |  |  |  |  |  | 
Cc1ccc(S(=O)(=O)C(C#N)c2nc3ccccc3nc2N2CCOCC2)cc1 (stereo not given) | 49.5 µM | 49.4 µM | > 100 µM | 15.9 µM | 81.7 µM |  |  |  |  |  |  |  | 
O=NN(CCCl)C(=O)Nc1ccc(Cl)c(Cl)c1 | > 100 µM | > 100 µM | > 69.3 µM | > 100 µM | 99.7 µM |  | > 100 | > 100 | > 100 |  |  |  | 
COc1cccc2c1C(=O)c1c(O)c3c(c(O)c1C2=O)C[C@@](O)(C(C)=O)C[C@@H]3OC1CC(N(C)C)C(O)C(C)O1 (stereo not given in full) | 0.302 µM and 0.274 µM | 0.204 µM and 0.18 µM | 0.307 µM and 0.367 µM | 1.04 µM and 0.467 µM | 0.403 µM and 0.0877 µM |  | 0.0139 | 0.135 | 0.0851 | < 0.0199 | 0.0054 | < 0.0133 | 0.0302 µM and 0.0169 µM
C=CC(Br)(CBr)CCC(Br)C(C)(C)Br (stereo not given) | 24.6 µM | 22.5 µM |  | 19.6 µM |  |  |  |  |  |  |  |  | 
CCOC(=O)c1ncn2c1[nH]c(=O)c1ccccc12 | > 100 µM | > 100 µM | > 100 µM | > 100 µM | > 100 µM |  |  |  |  |  |  |  | 
Cc1ccc([S+](c2ccccc2)c2cc(C)ccc2C)cc1 (stereo not given) | 13.8 µM | 15.3 µM |  |  |  |  |  |  |  |  |  |  | 
